These results are taken from US10639382B2, “Method for treating leukemia” (National Guard Health Affairs, priority 2017, dated 2020).

Counter-ions that a name gives are not always drawn.

What is called inhibition is the drop in the measured response relative to a control, in per cent.

Format in all cases: cell-based, human
For one assay, the system named is PBMCs from CLL patients. In words: Primary screening of FDA approved drug library, TitreGlo/CellTiter-Glo cell viability, PBMCs from CLL patients. To be noted: compound 10 uM, PBMCs from CLL patients, average over patients, relative to high control (0%) and no-cell low control (100%); for inhibition at 10 µM: Homo sapiens, PBMC, read-out: % Inhibition, CLL Average. Background: In ATP-based viability assays light output follows the ATP content of the culture.

Another assay concerns PBMCs from AML patients. In words: Primary screening of FDA approved drug library, TitreGlo/CellTiter-Glo cell viability, PBMCs from AML patients. To be noted: compound 10 uM, PBMCs from AML patients, average over patients, relative to high control (0%) and no-cell low control (100%); for inhibition at 10 µM: Homo sapiens, PBMC, read-out: % Inhibition, AML Average.
The subject of the next assay is PBMCs from ALL patients. The assay can be described thus: Primary screening of FDA approved drug library, TitreGlo/CellTiter-Glo cell viability, PBMCs from ALL patients. As to conditions: compound 10 uM, PBMCs from ALL patients, average over patients, relative to high control (0%) and no-cell low control (100%); for inhibition at 10 µM: Homo sapiens, PBMC, read-out: % Inhibition, ALL Average.

Another assay concerns PBMCs from CML patients. The assay can be described thus: Primary screening of FDA approved drug library, TitreGlo/CellTiter-Glo cell viability, PBMCs from CML patients. As to conditions: compound 10 uM, PBMCs from CML patients, average over patients, relative to high control (0%) and no-cell low control (100%); for inhibition at 10 µM: Homo sapiens, PBMC, read-out: % Inhibition, CML Average.

Description for PBMCs from ALL patients: (§1) Whole blood was taken from experimental group patients and control group patients. The collected blood was transferred to EDTA tubes with a 5 mL pipette and a pipette aid and then to each EDTA tubes corresponding 50 ml centrifuge tubes. All the blood from one patient was placed into 1 tube (50 mL) and an equal volume of PBS was added to the 50 mL centrifuge tube. The sample was then mixed by either inverting the tube or pipetting up & down. The blood was transferred into tow 50 mL leucosep tube and centrifuged at room temperature (18-20° C.) for 15 minutes at 800×g with the brake turned off and acceleration at 2/deceleration at zero. After centrifugation, the white cell interface (buffy coat) was removed by pasture pipette and transferred to the new appropriately labelled 50 ml centrifuge tube. 25 mL PBS was added to the white cell interface (buffy coat) and the mix was centrifuged for 10 minutes at room temperature at 400×g with the brake off and acceleration at 4 & deceleration at 2. The supernatant was discarded from the pellet carefully in an appropriate manner. The pellet was washed another time with 20 mL by centrifugation for 5 minutes as above. The pellet was re-suspended in 5 mL and cells were counted using V-Cell. The cells were then either used directly as fresh for screening or frozen in liquid nitrogen in 10% DMSO/RPMPI media until use.
(§2) The assay used for TitreGlo (Promega) to measure cell viability based on the ATP production. […] The assay was developed in a 384-well plate with 2500 cell/well in 50 uL total volume. Alternatively, the assay could be developed in a 96-well plate with 10,000 cells/well. […] Z′ as a statistics factor was calculated as follows:
(§3) Each compound from the ENZO FDA SCREEN-WELL® FDA approved drug library V2 (0.10 μl in 100% DMSO) was transferred to white, 384-well, PS, Cellstar plates (Greiner Bio-One) using the Echo® Liquid Handler (Labcyte Inc.). Each plate contained one column for the High/Low Controls. The Low Control (1% DMSO v/v in column 23, no cells) and the High Control (final 1% DMSO v/v in column 24, with cells) were employed to calculate the Z′ for each assay plate. […] At 24 h post seeding, baseline growth was assessed using a control plate and CellTiter-Glo (CTG) reagent (Promega Corporation). Briefly, 20 μL/well of CTG detection mix was added and plates were read using an EnVision Multimode plate reader (PerkinElmer) after 10 min incubation in the dark. The raw luminescence signal was normalized in ActivityBase XE with outliers in control wells eliminated according to the 3-sigma method to yield percentage of cell viability by using the High Control (HC) containing cells in 1% DMSO v/v (Carl Roth) and the Low Control containing 1% DMSO v/v (Carl Roth). All Medium-Throughput Screening experiments were performed in duplicate for each patient. […] The raw luminescence signal was processed using Graph Pad Prism (Graph Pad Software Inc.) with outliers in control wells eliminated according to the 3-sigma method. The dose-response curves were analyzed using a 4 parameter sigmoidal fit to obtain plausible results in the case non-sigmoidal dose-response curves.
(§4) The Screen-Well FDA approved drug library was screened, which contains 780 approved drugs. […] The final DMSO concentration in the assay plate was 0.1% of total volume. […] The average of all four control samples was then calculated and used to determine the positive “hits” in patients' samples.
(§5) Each average patient samples were plotted against average of the control samples to identify the positive hits.
Description for PBMCs from AML patients: as §1, §2, §3, §4, §5
Description for PBMCs from CLL patients: as §1, §2, §3, §4, §5
Description for PBMCs from CML patients: as §1, §2, §3, §5
Samples from 4 patients were screened against the FDA approved drug library where the Negative Control (High control) contained cells treated with DMSO and the Positive Control (Low control) were based using no cells. The screening was carried out in 96 well plates. The raw luminescence counts were normalized and the % Inhibition was calculated relative to the high control (0% Inhibition) and the low control (100% Inhibition).

For `COc1cccc2c1C(=O)c1c(O)c3c(c(O)c1C2=O)C[C@@](O)(C(C)=O)C[C@@H]3O[C@H]1C[C@H](N)[C@H](O)[C@H](C)O1` [Daunorubicin HCl], the inhibition at 10 µM was 65.5% in the assay with PBMCs from CLL patients, 64% in the assay on PBMCs from AML patients, 78.4% in the assay on PBMCs from ALL patients and 67.6% in the assay on PBMCs from CML patients.
For `O=c1[nH]c2ccccc2n1C1CCN(CCCC(c2ccc(F)cc2)c2ccc(F)cc2)CC1` [Pimozide], the inhibition at 10 µM with PBMCs from CLL patients was 39.5%; in the assay on PBMCs from AML patients it was 42.3%; with PBMCs from ALL patients, 58.8%; in the assay with PBMCs from CML patients, 69%.
Regarding `CC(=O)[C@]1(O)Cc2c(O)c3c(c(O)c2[C@@H](O[C@H]2C[C@H](N)[C@H](O)[C@H](C)O2)C1)C(=O)c1ccccc1C3=O` [Idarubicin HCl], the inhibition at 10 µM in the assay with PBMCs from CLL patients is 54.8%; in the assay on PBMCs from AML patients, 79%; with PBMCs from ALL patients, 73.5%; with PBMCs from CML patients, 43.5%.
Taken in the same sequence, the figures for `Nc1ccn([C@@H]2O[C@H](CO)[C@@H](O)[C@@H]2O)c(=O)n1` [Cytarabine] were 26.6%, 66.1%, 49.2% and 58.8%.
Take Ivermectin: the “% Inhibition, CLL Average” value in the assay on PBMCs from CLL patients is given as 66.0%. In the assay with PBMCs from AML patients, the “% Inhibition, AML Average” value was found to be 60.2%. For the same compound, in the assay on PBMCs from ALL patients, the “% Inhibition, ALL Average” value worked out at 70.4%. In addition, the “% Inhibition, CML Average” value with PBMCs from CML patients is listed as 79.3%.
Consider `CN1CCc2cccc3c2[C@H]1Cc1ccc(O)c(O)c1-3` [Apomorphine HCl Hemihydrate], for which the inhibition at 10 µM in the assay on PBMCs from CLL patients was found to be 27.9%; with PBMCs from AML patients, 39.5%; in the assay with PBMCs from ALL patients, 37.3%; with PBMCs from CML patients, 89.4%.
In the case of `CN(C)C(=O)C(CCN1CCC(O)(c2ccc(Cl)cc2)CC1)(c1ccccc1)c1ccccc1` [Loperamide HCl], the inhibition at 10 µM in the assay on PBMCs from CLL patients was found to be 16.3%; with PBMCs from AML patients it was 18.5%; in the assay with PBMCs from ALL patients it was 54.9%; with PBMCs from CML patients it was 69.3%.
With `NS(=O)(=O)c1cc(C(=O)O)c(NCc2ccco2)cc1Cl` [Furosemide], the inhibition at 10 µM with PBMCs from CLL patients was 50.3%; with PBMCs from AML patients it was -39%; in the assay on PBMCs from ALL patients, -31.3%; in the assay with PBMCs from CML patients, -38.4%.
`CO[C@H]1/C=C/O[C@@]2(C)Oc3c(C)c(O)c4c(O)c(c(/C=N/N5CCN(C6CCCC6)CC5)c(O)c4c3C2=O)NC(=O)/C(C)=C\C=C\[C@H](C)[C@H](O)[C@@H](C)[C@@H](O)[C@@H](C)[C@H](OC(C)=O)[C@@H]1C` [Rifapentine]: the results for the inhibition at 10 µM in the assay with PBMCs from CLL patients, with PBMCs from AML patients and in the assay on PBMCs from CML patients were 12.3%, -3.2% and 76.5%, respectively.
Take `CNC[C@H](O)c1ccc(O)c(O)c1.O=C(O)C(O)C(O)C(=O)O` [L-(−)-Epinephrine-(+)-Bitartrate]: the “% Inhibition, CLL Average” value in the assay with PBMCs from CLL patients came out at 45.4%. Further, the “% Inhibition, AML Average” value with PBMCs from AML patients is given as −2.8%. In the assay on PBMCs from ALL patients, the “% Inhibition, ALL Average” value was found to be 80.5%. For the same compound, the “% Inhibition, CML Average” value with PBMCs from CML patients turned out to be 68.4%.
For the compound `O=C1c2c(O)ccc(O)c2C(=O)c2c(NCCNCCO)ccc(NCCNCCO)c21` [Mitoxantrone HCl], the inhibition at 10 µM with PBMCs from CLL patients came out at 71.1%; with PBMCs from AML patients it was 68.8%; in the assay on PBMCs from ALL patients, 73.7%; in the assay with PBMCs from CML patients it was 72.6%.
In the case of `O=C(NCC1CCCCN1)c1cc(OCC(F)(F)F)ccc1OCC(F)(F)F` (stereo not shown) [Flecainide Acetate], the inhibition at 10 µM in the assay on PBMCs from CLL patients was 50.2%; with PBMCs from AML patients, 13%; in the assay on PBMCs from ALL patients, -18.3%; with PBMCs from CML patients, -1%.
Regarding `CC(CCc1ccc(O)cc1)NCCc1ccc(O)c(O)c1` (stereo not shown) [Dobutamine HCl], the inhibition at 10 µM in the assay with PBMCs from CLL patients is -5%; in the assay on PBMCs from AML patients, -10.5%; with PBMCs from ALL patients it was 79.6%; in the assay with PBMCs from CML patients, 25.3%.
Regarding `Clc1ccc(CCC(Cn2ccnc2)Sc2c(Cl)cccc2Cl)cc1` (stereo not shown) [Butoconazole Nitrate], the inhibition at 10 µM was determined as 44.1% in the assay with PBMCs from CLL patients, 46.6% with PBMCs from AML patients, 40.7% in the assay with PBMCs from ALL patients and 58.5% in the assay on PBMCs from CML patients.
As for `COc1cccc2c1C(=O)c1c(O)c3c(c(O)c1C2=O)C[C@@](O)(C(=O)CO)C[C@@H]3O[C@H]1C[C@H](N)[C@H](O)[C@H](C)O1` [Doxorubicin HCl], the inhibition at 10 µM was 67.2% in the assay on PBMCs from CLL patients, 73.6% in the assay on PBMCs from AML patients, 72.6% in the assay with PBMCs from ALL patients and 36.7% in the assay on PBMCs from CML patients.
Turning to `CC(C)(C)C(=O)OCOP(=O)(COCCn1cnc2c(N)ncnc21)OCOC(=O)C(C)(C)C` [Adcfovir Dipivoxil], the inhibition at 10 µM came to 43.9% in the assay on PBMCs from CLL patients, 72.8% in the assay on PBMCs from AML patients, 96% in the assay on PBMCs from ALL patients and 63.7% in the assay with PBMCs from CML patients.
Regarding `Nc1nc(Cl)nc2c1ncn2[C@@H]1O[C@H](CO)[C@@H](O)[C@@H]1F` [Clofarabine], the inhibition at 10 µM was 41.3% with PBMCs from CLL patients, -20.6% in the assay with PBMCs from AML patients, 68.1% in the assay with PBMCs from ALL patients and 21.9% with PBMCs from CML patients.
For the compound `C[C@H]1O[C@@H](O[C@H]2[C@@H](O)C[C@H](O[C@H]3[C@@H](O)C[C@H](O[C@H]4CC[C@@]5(C)[C@H](CC[C@@H]6[C@@H]5C[C@@H](O)[C@]5(C)[C@@H](C7=CC(=O)OC7)CC[C@]65O)C4)O[C@@H]3C)O[C@@H]2C)C[C@H](O)[C@@H]1O` [Digoxin], the inhibition at 10 µM is 30.1% in the assay with PBMCs from CLL patients, -33.2% in the assay with PBMCs from AML patients, 32% in the assay on PBMCs from ALL patients and 76.8% in the assay with PBMCs from CML patients.
Regarding `COc1cc(NC(C)CCCN)c2ncccc2c1` (stereo not shown) [Primaquine Phosphate], the inhibition at 10 µM in the assay with PBMCs from CLL patients was 16.9%; in the assay on PBMCs from AML patients, 19.8%; in the assay on PBMCs from ALL patients, 54.9%; in the assay with PBMCs from CML patients, 40.9%.
As for `Nc1nc(F)nc2c1ncn2[C@@H]1O[C@H](COP(=O)(O)O)[C@@H](O)[C@@H]1O` [Fludarabine Phosphate], the inhibition at 10 µM in the assay with PBMCs from CLL patients came to 17.3%; with PBMCs from AML patients, 21.8%; in the assay with PBMCs from ALL patients it was 53.9%; with PBMCs from CML patients, 19.1%.
For `CSc1ccc2c(c1)N(CCC1CCCCN1C)c1ccccc1S2` (stereo not shown) [Thioridazine HCl] the same measures were -40.9%, 27%, 23.1% and 70.3%.
For the compound `[H]/N=C(\N/C(=N/[H])NCCCCCCNC(=N)NC(=N)Nc1ccc(Cl)cc1)Nc1ccc(Cl)cc1` [Chlorhexidine Dihydrochloride], the inhibition at 10 µM was 70.3% with PBMCs from CLL patients, 26.9% in the assay with PBMCs from AML patients, 53.6% with PBMCs from ALL patients and 59.9% in the assay with PBMCs from CML patients.
For `CO[C@H]1/C=C/O[C@@]2(C)Oc3c(C)c(O)c4c(O)c(c5c(nc6cc(C)ccn65)c4c3C2=O)NC(=O)/C(C)=C\C=C\[C@H](C)[C@H](O)[C@@H](C)[C@@H](O)[C@@H](C)[C@H](OC(C)=O)[C@@H]1C` [Rifaximin] the same measures were -60.2%, -42.8%, -45.4% and 42.3%.
In the case of `CN(C)CCCN1c2ccccc2CCc2ccccc21` [Imipramine HCl], the inhibition at 10 µM in the assay on PBMCs from AML patients is 1.9%; in the assay with PBMCs from ALL patients, -6%; in the assay on PBMCs from CML patients it was 13.7%.
